# US20240101576A1, “HETEROCYCLIC INHIBITORS OF EGFR AND/OR HER2, FOR USE IN THE TREATMENT OF CANCER” (Scorpion Therapeutics, Inc., priority 2020, published 2024)
# Key:
# Assay type in all cases: cell-based
# [1] = target: T1, EGFR WT (Ba/F3 cells) (Homo sapiens, UniProt P00533); assay: Inhibitor activity on EGFR-dependent cell growth (CellTiter-Glo, 72 h), Ba/F3 EGFR WT; conditions: read-out: BaF3 WT IC50
# T1 construct: expressed in transfected cells; host or cells: Ba/F3 (murine pro-B cells), retroviral transduction, puromycin selection, maintained with EGF
# In short: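 This growth assay used Ba/F3 cells that depend on wild-type EGFR and are kept in EGF without IL3. Compounds were made up as 10 mM DMSO stocks and diluted 3-fold over 10 points. 120 nL went onto 600 cells/well. After 72 hours, 40 μL CellTiter-Glo was added and luminescence read on EnVision after 30 min.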
# [2] = target: T2, EGFR exon 20 NPG Ins D770_N771 (Ba/F3 cells) (Homo sapiens, UniProt P00533, INS770NPG); assay: Inhibitor activity on EGFR phosphorylation (pEGFR AlphaLISA, 2 h), Ba/F3 EGFR exon 20 NPG Ins
# T2 construct: expressed in transfected cells; host or cells: Ba/F3 (murine pro-B cells), retroviral transduction, puromycin selection, IL3-independent pool
# Text: Example B. Inhibitor Activity on EGFR phosphorylation (pEGFR)
# EGFR mutant Ba/F3 cells were generated by transduction with retrovirus containing vectors expressing EGFR L858R, EGFR exon 19del, EGFR L858R/C797S, EGFR exon 20 NPG Ins D770_N771, EGFR exon 20 ASV Ins V769_D770, or EGFR exon 20 SVD Ins D770_N771 genes along with a puromycin selection marker. Transduced cells are selected with puromycin for 7 days and are then be transferred into culture media without Interleukin 3 (IL3). Surviving cells are confirmed to express EGFR by Western blot and maintained as a pool. CUTO14 cells were obtained from Dr. Robert C. Doebele at the University of Colorado. The IC50 date are included in Table 6 and Table 7.
# 1.1 Cells are harvested from flask into cell culture medium and the cell number counted.
# 1.2 Cells are diluted with culture medium to the desired density and 40 μL of cell suspension is added into each well of 384-well cell culture plate and the seeding density is 50K cells/well (Ba/F3) or 12.5K cells/well (CUTO14).
# 2 Compound Preparation and Treatment
# 2.1 Test compounds are dissolved to 10 mM in a DMSO stock solution. 45 μL of stock solution is transferred to a 384 polypropylene plate (pp-plate). Perform 3-fold, 10-point dilution via transferring 15 μL compound into 30 μL DMSO using a TECAN (EVO200) liquid handler.
# 2.2 Spin plates at room temperature at 1,000 RPM for 1 minute.
# 2.3 Transfer 5 nL of diluted compound from compound source plate into the cell plate.
# 2.4 After compound treatment for 2 hours, perform pEGFR detection by AlphaLISA for compound treatment plates as described in “Detection” section.
# 3 Detection by pEGFR AlphaLISA (Perkin-Elmer)
# 3.1 Plates are removed from incubators and equilibrated at room temperature for 10 minutes, and media was removed
# 3.2 10 μL of lysis buffer is added and plates shaken at 600 rpm for 1 hr.
# 3.3 Prepare acceptor mix just before use and dispense 5 μL of acceptor mix to all the wells. Shake 350 rpm for Ihr in the dark
# 3.4 Prepare donor mix under low light conditions prior to use. Dispense 5 μL of donor mix to all the wells. Mix well on the shaker, seal and wrap in aluminum foil and incubate 1.5 hrs at room temperature in the dark
# 3.5 Transfer 18.5 μL mixture to OptiPlate 384, and read using an Envision. The IC50 date were included in Table 6 and Table 7.
# [3] = target: T3, EGFR exon 20 FQEA Ins A763_V764 (Ba/F3 cells) (Homo sapiens, UniProt P00533, INS763FQEA); assay: Inhibitor activity on EGFR-dependent cell growth (CellTiter-Glo, 72 h), Ba/F3 EGFR exon 20 FQEA Ins; conditions: read-out: BaF3 FQEA IC50
# T3 construct: expressed in transfected cells; host or cells: Ba/F3 (murine pro-B cells), retroviral transduction, puromycin selection, IL3-independent pool
# In short: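 Compounds, serially diluted 3-fold over 10 points in DMSO and added at 120 nL per well, act on Ba/F3 EGFR-mutant cells for 72 h. Seeding is 800 (exon 19del, FQEA), 600 (L858R/C797S) or 400 (L858R) cells/well. CTG luminescence is fitted with a four-parameter logistic curve to give IC50.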
# [4] = target: T4, EGFR exon 20 SVD Ins D770_N771 (Ba/F3 cells) (Homo sapiens, UniProt P00533, INS770SVD); assay: Inhibitor activity on EGFR-dependent cell growth (CellTiter-Glo, 72 h), Ba/F3 EGFR exon 20 SVD Ins; conditions: read-out: BaF3 SVD IC50
# T4 construct: expressed in transfected cells; host or cells: Ba/F3 (murine pro-B cells), retroviral transduction, puromycin selection, IL3-independent pool
# In short: (§1)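 IC50s derive from a sigmoidal dose–response fit of CellTiter-Glo signal. The signal was normalised between […]-treated cells and cell-free medium. Ba/F3 mutant-EGFR cells, seeded at 400–800/well depending on the line, had 72 h of exposure to a 10-point, 3-fold compound series.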
# [5] = target: T5, EGFR exon 20 ASV Ins V769_D770 (Ba/F3 cells) (Homo sapiens, UniProt P00533, INS769ASV); assay: Inhibitor activity on EGFR-dependent cell growth (CellTiter-Glo, 72 h), Ba/F3 EGFR exon 20 ASV Ins; conditions: read-out: BaF3 ASV IC50
# T5 construct: expressed in transfected cells; host or cells: Ba/F3 (murine pro-B cells), retroviral transduction, puromycin selection, IL3-independent pool
# In short: as §1
# [6] = target: T2, EGFR exon 20 NPG Ins D770_N771 (Ba/F3 cells); assay: Inhibitor activity on EGFR-dependent cell growth (CellTiter-Glo, 72 h), Ba/F3 EGFR exon 20 NPG Ins; conditions: read-out: BaF3 NPG IC50
# In short: as §1
# T1 sequence (P00533 25-1210): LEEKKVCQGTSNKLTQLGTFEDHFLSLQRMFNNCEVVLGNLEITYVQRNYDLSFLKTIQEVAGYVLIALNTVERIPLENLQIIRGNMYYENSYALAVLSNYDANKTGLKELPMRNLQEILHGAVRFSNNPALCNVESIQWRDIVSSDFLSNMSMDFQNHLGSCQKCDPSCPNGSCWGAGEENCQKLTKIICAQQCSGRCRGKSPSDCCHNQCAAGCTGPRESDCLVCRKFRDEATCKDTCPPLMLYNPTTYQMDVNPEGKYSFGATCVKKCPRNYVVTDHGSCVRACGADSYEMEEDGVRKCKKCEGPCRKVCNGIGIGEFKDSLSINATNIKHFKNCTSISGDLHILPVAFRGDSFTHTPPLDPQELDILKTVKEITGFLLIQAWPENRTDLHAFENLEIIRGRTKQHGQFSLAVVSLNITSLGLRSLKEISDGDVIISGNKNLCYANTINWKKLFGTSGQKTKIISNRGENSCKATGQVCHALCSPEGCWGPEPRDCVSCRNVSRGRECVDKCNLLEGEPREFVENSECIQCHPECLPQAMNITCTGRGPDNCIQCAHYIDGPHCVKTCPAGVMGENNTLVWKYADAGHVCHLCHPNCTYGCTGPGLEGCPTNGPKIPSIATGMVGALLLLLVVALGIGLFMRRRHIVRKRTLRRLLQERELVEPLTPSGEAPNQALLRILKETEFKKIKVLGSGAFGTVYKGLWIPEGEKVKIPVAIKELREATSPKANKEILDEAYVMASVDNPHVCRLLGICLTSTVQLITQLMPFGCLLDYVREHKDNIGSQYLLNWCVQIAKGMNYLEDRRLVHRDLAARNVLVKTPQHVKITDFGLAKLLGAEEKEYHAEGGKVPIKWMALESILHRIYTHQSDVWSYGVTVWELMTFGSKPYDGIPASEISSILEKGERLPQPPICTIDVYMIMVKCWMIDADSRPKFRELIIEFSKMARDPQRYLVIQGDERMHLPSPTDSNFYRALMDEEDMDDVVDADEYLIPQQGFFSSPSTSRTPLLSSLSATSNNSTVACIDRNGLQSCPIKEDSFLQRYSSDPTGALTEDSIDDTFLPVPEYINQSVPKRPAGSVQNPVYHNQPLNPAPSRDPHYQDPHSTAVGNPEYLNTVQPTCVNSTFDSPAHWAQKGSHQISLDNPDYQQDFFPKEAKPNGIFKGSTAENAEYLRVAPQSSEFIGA
# T5 sequence (P00533 with tags, fused parts or gaps INS769ASV): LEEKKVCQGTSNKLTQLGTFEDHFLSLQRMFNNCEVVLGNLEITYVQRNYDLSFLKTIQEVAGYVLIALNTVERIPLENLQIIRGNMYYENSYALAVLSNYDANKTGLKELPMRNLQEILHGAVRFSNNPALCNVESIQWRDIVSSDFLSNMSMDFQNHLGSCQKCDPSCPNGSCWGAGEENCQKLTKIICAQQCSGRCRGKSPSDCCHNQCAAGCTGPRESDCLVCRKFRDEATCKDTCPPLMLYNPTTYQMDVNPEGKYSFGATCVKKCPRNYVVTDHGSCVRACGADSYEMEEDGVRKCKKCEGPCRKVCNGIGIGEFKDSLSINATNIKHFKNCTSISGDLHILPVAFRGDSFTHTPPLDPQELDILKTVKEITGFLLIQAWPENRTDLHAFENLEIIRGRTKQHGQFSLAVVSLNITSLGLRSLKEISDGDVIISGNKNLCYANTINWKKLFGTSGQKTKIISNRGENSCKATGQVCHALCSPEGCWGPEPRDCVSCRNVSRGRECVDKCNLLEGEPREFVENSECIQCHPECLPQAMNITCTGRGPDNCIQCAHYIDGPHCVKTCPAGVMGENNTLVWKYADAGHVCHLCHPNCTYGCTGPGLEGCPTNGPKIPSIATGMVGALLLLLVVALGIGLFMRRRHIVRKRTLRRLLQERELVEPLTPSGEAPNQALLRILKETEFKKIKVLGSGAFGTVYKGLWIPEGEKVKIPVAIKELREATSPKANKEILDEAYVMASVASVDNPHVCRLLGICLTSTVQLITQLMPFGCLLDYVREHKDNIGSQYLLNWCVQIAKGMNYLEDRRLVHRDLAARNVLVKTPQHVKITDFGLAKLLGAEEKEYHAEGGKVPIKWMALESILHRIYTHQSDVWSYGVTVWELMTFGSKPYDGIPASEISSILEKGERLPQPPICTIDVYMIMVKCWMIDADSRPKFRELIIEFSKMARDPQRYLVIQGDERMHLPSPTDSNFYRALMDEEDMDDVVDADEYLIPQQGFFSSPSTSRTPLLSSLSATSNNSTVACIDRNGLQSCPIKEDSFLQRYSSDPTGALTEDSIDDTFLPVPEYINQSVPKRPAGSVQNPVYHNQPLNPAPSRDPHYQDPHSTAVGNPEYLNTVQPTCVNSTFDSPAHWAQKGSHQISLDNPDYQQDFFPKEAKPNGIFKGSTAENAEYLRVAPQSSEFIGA
# T2 sequence (P00533 with tags, fused parts or gaps INS770NPG): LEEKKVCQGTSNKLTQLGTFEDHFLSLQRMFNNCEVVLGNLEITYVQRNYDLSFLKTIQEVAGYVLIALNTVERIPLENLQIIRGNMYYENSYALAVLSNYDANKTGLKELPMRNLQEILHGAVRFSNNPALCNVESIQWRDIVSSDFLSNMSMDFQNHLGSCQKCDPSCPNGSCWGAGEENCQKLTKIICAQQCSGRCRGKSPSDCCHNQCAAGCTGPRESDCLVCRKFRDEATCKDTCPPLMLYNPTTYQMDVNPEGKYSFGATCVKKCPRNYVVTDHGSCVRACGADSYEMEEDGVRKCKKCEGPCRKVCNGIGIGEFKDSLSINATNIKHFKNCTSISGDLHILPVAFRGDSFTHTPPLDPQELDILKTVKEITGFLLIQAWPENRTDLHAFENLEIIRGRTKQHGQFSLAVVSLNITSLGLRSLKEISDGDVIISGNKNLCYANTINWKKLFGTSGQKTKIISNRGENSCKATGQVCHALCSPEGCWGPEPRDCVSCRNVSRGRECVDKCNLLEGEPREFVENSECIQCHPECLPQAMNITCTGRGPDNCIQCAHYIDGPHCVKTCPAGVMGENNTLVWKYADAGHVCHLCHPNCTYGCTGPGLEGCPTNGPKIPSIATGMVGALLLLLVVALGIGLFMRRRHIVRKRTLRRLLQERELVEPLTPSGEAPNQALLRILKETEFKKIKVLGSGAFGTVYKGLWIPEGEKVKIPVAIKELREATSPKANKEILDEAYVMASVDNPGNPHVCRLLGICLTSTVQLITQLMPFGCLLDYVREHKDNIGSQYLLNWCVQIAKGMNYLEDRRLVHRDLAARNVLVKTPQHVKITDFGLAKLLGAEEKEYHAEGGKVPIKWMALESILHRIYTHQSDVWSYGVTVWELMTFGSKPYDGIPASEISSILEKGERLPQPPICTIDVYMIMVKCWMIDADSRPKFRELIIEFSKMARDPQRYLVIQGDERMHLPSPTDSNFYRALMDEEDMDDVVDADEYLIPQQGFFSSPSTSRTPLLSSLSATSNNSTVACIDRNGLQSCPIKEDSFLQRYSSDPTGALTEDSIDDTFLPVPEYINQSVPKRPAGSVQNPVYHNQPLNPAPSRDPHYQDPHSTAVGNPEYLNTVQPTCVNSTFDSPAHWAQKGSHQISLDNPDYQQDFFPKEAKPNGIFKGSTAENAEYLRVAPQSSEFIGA
# T3 sequence (P00533 with tags, fused parts or gaps INS763FQEA): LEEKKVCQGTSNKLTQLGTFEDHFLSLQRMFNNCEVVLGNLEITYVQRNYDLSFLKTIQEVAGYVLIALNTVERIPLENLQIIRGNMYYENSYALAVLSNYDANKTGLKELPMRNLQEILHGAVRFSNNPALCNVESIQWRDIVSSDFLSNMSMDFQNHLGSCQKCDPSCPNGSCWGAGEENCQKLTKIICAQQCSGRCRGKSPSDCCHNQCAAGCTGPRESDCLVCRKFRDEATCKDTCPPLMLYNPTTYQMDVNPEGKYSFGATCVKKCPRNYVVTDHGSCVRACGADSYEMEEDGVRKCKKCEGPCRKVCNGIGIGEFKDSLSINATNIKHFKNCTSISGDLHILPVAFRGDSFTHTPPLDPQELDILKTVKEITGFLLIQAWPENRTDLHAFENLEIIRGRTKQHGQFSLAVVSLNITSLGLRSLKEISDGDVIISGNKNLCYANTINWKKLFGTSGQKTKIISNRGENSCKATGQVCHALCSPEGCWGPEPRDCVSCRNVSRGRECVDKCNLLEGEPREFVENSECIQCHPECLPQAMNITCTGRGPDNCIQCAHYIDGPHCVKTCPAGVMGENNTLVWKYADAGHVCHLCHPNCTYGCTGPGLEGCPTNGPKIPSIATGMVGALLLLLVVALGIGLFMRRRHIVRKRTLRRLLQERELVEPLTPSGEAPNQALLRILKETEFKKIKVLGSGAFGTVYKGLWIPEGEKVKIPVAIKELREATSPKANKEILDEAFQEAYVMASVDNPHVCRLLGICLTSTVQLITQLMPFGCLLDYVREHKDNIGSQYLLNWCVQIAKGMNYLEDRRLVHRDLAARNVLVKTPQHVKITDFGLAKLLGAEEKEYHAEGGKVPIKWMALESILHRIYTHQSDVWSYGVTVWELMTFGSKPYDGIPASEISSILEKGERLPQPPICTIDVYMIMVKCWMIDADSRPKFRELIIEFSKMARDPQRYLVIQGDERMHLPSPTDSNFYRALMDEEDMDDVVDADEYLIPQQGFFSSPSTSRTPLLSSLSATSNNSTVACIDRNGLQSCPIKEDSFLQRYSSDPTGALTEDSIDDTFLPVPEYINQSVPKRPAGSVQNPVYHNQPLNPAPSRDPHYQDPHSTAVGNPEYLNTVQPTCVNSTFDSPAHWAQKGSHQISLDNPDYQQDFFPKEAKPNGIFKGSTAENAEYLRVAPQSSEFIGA
SMILES,IC50 [1] [nM],IC50 [2] [nM],IC50 [3] [nM],IC50 [4] [nM],IC50 [5] [nM],IC50 [6] [nM]
"COc1cc2nccc(-c3[nH]c4c(c3Nc3cccc(F)c3C)C(=O)NCC4)c2nc1OC [Compound 808, 2-(6,7-dimethoxy-1,5-naphthyridin-4-yl)-3-[(3-fluoro-2-methylphenyl)amino]-1H,5H,6H,7H-pyrrolo[3,2-c]pyridin-4-one]",< 100,< 100,< 100,< 100,< 100,
"COc1c(F)cccc1Nc1c(-c2ncnc3c2ccn3C)[nH]c2c1C(=O)NCC2 [Compound 150, 3-((3-fluoro-2-methoxyphenyl)amino)-2-(7-methyl-7H-pyrrolo[2,3-d]pyrimidin-4-yl)-1,5,6,7-tetrahydro-4H-pyrrolo[3,2-c]pyridin-4-one]",> 1000,> 1000,,,,> 1000
"COc1c(F)cccc1Nc1c(-c2snc3ccccc23)[nH]c2c1C(=O)NCC2 [Compound 157, 2-(benzo[c]isothiazol-3-yl)-3-((3-fluoro-2-methoxyphenyl)amino)-1,5,6,7-tetrahydro-4H-pyrrolo[3,2-c]pyridin-4-one]",100 to 1000,> 1000,,,,> 1000
"COc1ccc2nccc(-c3[nH]c4c(c3Nc3cccc(Cl)c3OC)C(=O)NCC4)c2n1 [Compound 149, 3-((3-chloro-2-methoxyphenyl)amino)-2-(6-methoxy-1,5-naphthyridin-4-yl)-1,5,6,7-tetrahydro-4H-pyrrolo[3,2-c]pyridin-4-one]",,< 100,< 100,< 100,< 100,< 100
"COc1nc2c(-c3[nH]c4c(c3Nc3cccc(F)c3OC)C(=O)NCC4)ccnc2cc1C [Compound 682, 3-[(3-fluoro-2-methoxyphenyl)amino]-2-(6-methoxy-7-methyl-1,5-naphthyridin-4-yl)-1H,5H,6H,7H-pyrrolo[3,2-c]pyridin-4-one]",< 100,< 100,,,,< 100
"COc1c(Cl)cccc1Nc1c(-c2ccnc(N)n2)[nH]c2c1C(=O)NC[C@@H]2C[C@@H]1COCCO1 [Compound 532, (7S)-2-(2-aminopyrimidin-4-yl)-3-[(3-chloro-2-methoxyphenyl)amino]-7-[(2R)-1,4-dioxan-2-ylmethyl]-1H,5H,6H,7H-pyrrolo[3,2-c]pyridin-4-one]",> 1000,< 100,,< 100,< 100,< 100
"COc1c(F)cccc1Nc1c(-c2ccnc(-c3ccccc3)c2)[nH]c2c1C(=O)NCC2 [Compound 159, 3-((3-fluoro-2-methoxyphenyl)amino)-2-(2-phenylpyridin-4-yl)-1,5,6,7-tetrahydro-4H-pyrrolo[3,2-c]pyridin-4-one]",100 to 1000,> 1000,,,,> 1000
"C=CC(=O)N1CCN(c2ncc3nccc(-c4[nH]c5c(c4Nc4cccc(F)c4OC)C(=O)NCC5)c3n2)CC1 [Compound 576, 3-[(3-fluoro-2-methoxyphenyl)amino]-2-{2-[4-(prop-2-enoyl)piperazin-1-yl]pyrido[3,2-d]pyrimidin-8-yl}-1H,5H,6H,7H-pyrrolo[3,2-c]pyridin-4-one]",< 100,< 100,,< 100,< 100,< 100
COc1c(F)cccc1Nc1c(-c2ccnc(N)n2)[nH]c2c1C(=O)NCC2 [compound 281],> 1000,< 100,100 to 1000,,,< 100
